Test results from US8809280B2, “Therapeutic peptides” (Lytix Biopharma AS, priority 2009, dated 2014).
≈ marks a conversion by molar mass, not a printed value. Like-named read-outs stand apart in the source and are kept apart here.

Key:
Format in all cases: cell-based
[1] = test system: Staphylococcus aureus (ATTC 25923); assay: microbe, parasite or virus in culture
Method: (§1) The antimicrobial testing was conducted by TosLab A/S (Tromsø, Norway). Each compound was diluted to 1 mg/ml in water and tested in duplicates at 200, 100, 50, 35, 15, 10, 5, 2.5, 1, 0.5 μg/ml except 4n which was tested at 50, 35, 15, 10, 5, 2.5, 1, 0.5 μg/ml due to solubility problems. All tested compounds were di TFA salts.
(§2) The bacterial strains were grown in 2% Bacto Peptone water until exponential growth was achieved. […] A bacterial concentration of 2×10^6 cfu/ml was used. Both negative control (no peptide) and positive control (Gentamicin) was used for all bacterial strains. Growth or no growth was judged by the turbidity of the wells.
Staphylococcus aureus (ATTC 25923)
(§3) Antimicrobial assays: 200 μg/ml
(§4) Suitable methodologies are described in Example 1.
(§5) Each compound was tested in duplicates at 200, 100, 50, 35, 15, 10, 5, 2.5, 1, 0.5 μg/ml. All tested compounds were di-trifluoroacetic acid salts.

[2] = test system: methicillin resistant Staphylococcus aureus (ATCC 33591); assay: microbe, parasite or virus in culture
Method: as §1, §2
Methicillin resistant Staphylococcus aureus (ATCC 33591)
as §3, §4, §5

[3] = test system: methicillin resistant Staphylococcus epidermidis (ATCC 27626); assay: microbe, parasite or virus in culture
Method: as §1, §2
Methicillin resistant Staphylococcus epidermidis (ATCC 27626)
as §3, §4, §5

[4] = test system: Escherichia coli (ATTC 25922); assay: microbe, parasite or virus in culture; conditions: for MIC E. coli: Example 1, di TFA salts, highest concentration tested 200 μg/ml
Method: as §1, §2
Escherichia coli (ATTC 25922)
as §3, §4, §5

human red blood cells = assay: cells
Method: The hemolytic testing against human erythrocytes was conducted by Lytix Biopharma A/S (Tromso, Norway). Each compound was tested from a concentration of 1 mg/ml and lower, except 4k and 4n which was only tested up to 0.5 mg/ml due to solubility problems. 8 mL of blood was collected from adult healthy male donors. The blood was divided equally and distributed in a commercial available EDTA containing test tube (BD vacutainer, 7.2 mg K2 EDTA) and in a 10 mL reaction vial containing 40 μL of a heparin solution (1000 U/mL in 0.9% sodium chloride). After 30 minutes the hematocrit of the EDTA treated blood was determined. The heparinized blood was centrifuged for 10 minutes at 1500 rpm and the supernatant removed. Subsequently the RBCs were washed with prewarmed PBS three times, and diluted to 10% hematocrit. The compounds dissolved in PBS (concentration 1 μg/mL to 1000 µg/mL) and the erythrocytes were incubated under agitation at 37° C. for one hour. A positive control with an end concentration of 0.1% TRITON X-100 (nonionic surfactant) and a negative control containing pure PBS buffer were included. The samples were centrifuged (4000 rpm) for 5 minutes and the absorption of the supernatant was measured at 405 nm. The values given in Table 1A correspond to 50% hemolysis.
The plasma fraction of heparinized human blood was first removed by centrifugation and three additional washing steps with 37° C. pre-warmed phosphate buffered saline (PBS). Subsequently, the human RBC were diluted to 10% hematocrit and the β^2,2-amino acid derivatives were dissolved in PBS providing concentrations ranging from 1-1000 μg/mL. The diluted RBC were added to the compound solutions to a final erythrocyte concentration of 1% v/v. PBS and TRITON X-100 (non-ionic surfactant), in a final concentration of 0.1% v/v, were included as negative and positive control. After 1 hour agitated incubation at 37° C. the samples were centrifuged at 4000 rpm for 5 min. Release of hemoglobin was determined by measuring the absorbance of the supernatant at 405 nm. Hemolytic activity was calculated as the ratio of treated sample with β^2,2-amino acid derivative and tenside treated sample according to the formula: […]

[5] = Staphylococcus aureus, Example 2, values separated by / are repeat tests, read-out: Antimicrobial potency (MIC) S. aureus
[6] = Staphylococcus aureus, ATCC 33591 / MRSA, Example 2, values separated by / are repeat tests, read-out: Antimicrobial potency (MIC) MRSA
[7] = Staphylococcus epidermidis, ATCC 27626 / MRSE, Example 2, values separated by / are repeat tests, read-out: Antimicrobial potency (MIC) MRSE
[8] = Escherichia coli, Example 2, values separated by / are repeat tests, read-out: Antimicrobial potency (MIC) E. coli
[9] = ATTC 25923, read-out: MIC S. aureus
[10] = ATCC 33591, read-out: MIC MTRSA
[11] = ATTC 25922, read-out: MIC E. coli
[12] = Example 1, 50% hemolysis of human red blood cells, highest concentration tested 1000 μg/ml
[13] = Homo sapiens, Erythrocyte, Example 2, highest concentration tested 1000 μg/ml, * low solubility in the test media, read-out: Toxicity RBC (EC50)

SMILES	MIC [1, 5]	MIC [2, 6]	MIC [3, 7]	MIC [4, 8]	MBC S. aureus ([1]; ATTC 25923)	MIC [1, 9]	MBC MRSA ([2]; ATCC 33591)	MBC MRSE ([3]; ATCC 27626)	MIC ([3]; ATCC 27626, read-out: MIC MRSE)	MBC E. coli ([4]; ATTC 25922)	MIC E. coli ([4]; ATTC 25922)	EC50 RBC (human red blood cells; [12])	MIC MRSA ([2]; ATCC 33591)	EC50 (human red blood cells; [13])	other results
CCCC(CN)(CCC)C(=O)NCCN [Compound 1, N-(2-aminoethyl)-2-(aminomethyl)-2-propyl-pentanamide]	> 200 µg/mL	> 200 µg/mL	> 200 µg/mL	> 200 µg/mL	–	–	–	–	–	–	–	–	–	–	–
CN(C)CCN1CCN(C(=O)C(CN)(CCCc2ccccc2)CCCc2ccccc2)CC1 [Compound 4a]	–	–	–	–	>360 µM	289 µM	>360 µM	>360 µM	72 µM	>360 µM	— (The notation “—”denotes no detectable activity (MIC or EC50) within the concentration range tested.)	— (The notation “—”denotes no detectable activity (MIC or EC50) within the concentration range tested.)	–	–	MIC S. aureus ([1]; Example 1, ATTC 25923, di TFA salts, highest concentration tested 200 μg/ml): — (The notation “—”denotes no detectable activity (MIC or EC50) within the concentration range tested.); MIC [2, 10]: 72 µM; MIC MRSA ([2]; Example 1, ATCC 33591, di TFA salts, highest concentration tested 200 μg/ml): — (The notation “—”denotes no detectable activity (MIC or EC50) within the concentration range tested.); MIC MRSE ([3]; Example 1, ATCC 27626, di TFA salts, highest concentration tested 200 μg/ml): — (The notation “—”denotes no detectable activity (MIC or EC50) within the concentration range tested.); MIC [4, 11]: 289 µM; EC50 RBC (human red blood cells; Example 4, hemolytic activity, human red blood cells, highest concentration tested 1000 μg/ml): — (The notation “—” denotes no detectable activity (MIC or EC50) within the concentration range tested.)
CN(C)CCN1CCN(C(=O)C(CN)(Cc2ccc(C(F)(F)F)cc2)Cc2ccc(C(F)(F)F)cc2)CC1 [Compound 4b]	–	–	–	–	301 µM (≈ 164 µg/mL)	–	150 µM (≈ 81.7 µg/mL)	75 µM (≈ 40.8 µg/mL)	–	>301 µM	— (The notation “—”denotes no detectable activity (MIC or EC50) within the concentration range tested.)	— (The notation “—”denotes no detectable activity (MIC or EC50) within the concentration range tested.)	150 µM (≈ 81.7 µg/mL)	–	Therapeutic index S. aureus ([1]; ATTC 25923): 25; Therapeutic index MRSA ([2]; ATCC 33591): 172; MIC [2, 10]: 6.5 µM; Therapeutic index MRSE ([3]; ATCC 27626): 17; Therapeutic index E. coli ([4]; ATTC 25922): 8.6; MIC [4, 11]: 129 µM; EC50 (human red blood cells; red cells of human): 1120 µM
N=C(N)NCCC[C@H](NC(=O)C(CN)(CCc1ccccc1)CCc1ccccc1)C(N)=O [Compound 4e]	–	–	–	–	147 µM (≈ 66.5 µg/mL)	147 µM	147 µM (≈ 66.5 µg/mL)	74 µM (≈ 33.5 µg/mL)	74 µM	>294 µM	— (The notation “—”denotes no detectable activity (MIC or EC50) within the concentration range tested.)	— (The notation “—”denotes no detectable activity (MIC or EC50) within the concentration range tested.)	147 µM (≈ 66.5 µg/mL)	–	–
N=C(N)NCCC[C@H](NC(=O)C(CN)(CCCc1ccccc1)CCCc1ccccc1)C(N)=O [Compound 4f]	–	–	–	–	49 µM (≈ 23.6 µg/mL)	49 µM	49 µM (≈ 23.6 µg/mL)	49 µM (≈ 23.6 µg/mL)	35 µM	>282 µM	— (The notation “—”denotes no detectable activity (MIC or EC50) within the concentration range tested.)	— (The notation “—”denotes no detectable activity (MIC or EC50) within the concentration range tested.)	49 µM (≈ 23.6 µg/mL)	–	–
CC(C)c1ccc(CC(CN)(Cc2ccc(C(C)C)cc2)C(=O)N[C@@H](CCCNC(=N)N)C(N)=O)cc1 [Compound 4j]	–	–	–	–	6.8 µM (≈ 3.46 µg/mL)	10.2 µM	6.8 µM (≈ 3.46 µg/mL)	6.8 µM (≈ 3.46 µg/mL)	6.8 µM	136 µM (≈ 69.2 µg/mL)	–	–	6.8 µM (≈ 3.46 µg/mL)	–	MIC [4, 11]: 136 µM; EC50 (human red blood cells; red cells of human): 386 µM
Cc1cc(C)cc(CC(CN)(Cc2cc(C)cc(C)c2)C(=O)N[C@@H](CCCNC(=N)N)C(N)=O)c1 [Compound 4l]	–	–	–	–	49 µM (≈ 23.6 µg/mL)	60 µM	49 µM (≈ 23.6 µg/mL)	21 µM (≈ 10.1 µg/mL)	35 µM	>282 µM	— (The notation “—”denotes no detectable activity (MIC or EC50) within the concentration range tested.)	— (The notation “—”denotes no detectable activity (MIC or EC50) within the concentration range tested.)	49 µM (≈ 23.6 µg/mL)	–	–
CC(C)(C)c1cc(CC(CN)(Cc2cc(C(C)(C)C)cc(C(C)(C)C)c2)C(=O)N[C@@H](CCCNC(=N)N)C(N)=O)cc(C(C)(C)C)c1 [Compound 4n]	–	–	–	–	4.6 µM (≈ 2.99 µg/mL)	2.9 µM	4.6 µM (≈ 2.99 µg/mL)	3.4 µM (≈ 2.21 µg/mL)	10.1 µM	5.7 µM (≈ 3.7 µg/mL)	–	–	2.1 µM (≈ 1.36 µg/mL)	–	MIC [4, 11]: 5.7 µM; EC50 (human red blood cells; red cells of human): 99 µM
CN(C)CCNC(=O)C(CN)(Cc1ccccc1)Cc1ccccc1 [Compound 23, 3-amino-2,2-dibenzyl-N-(2-(dimethylamino)-ethyl)-propanamide]	> 100 µg/mL	> 100 µg/mL	> 100 µg/mL	> 100 µg/mL	–	–	–	–	–	–	–	–	–	> 1000 µg/mL	–
CN(C)CCNC(=O)C(CN)(Cc1ccc(C(C)(C)C)cc1)Cc1ccc(C(C)(C)C)cc1 [Compound 24, 3-amino-2,2-bis(4-tert-butylbenzyl)-N-(2-(dimethylamino)-ethyl)-propanamide]	5 µg/mL	5 µg/mL	2.5 µg/mL	5 µg/mL	–	–	–	–	–	–	–	–	–	185 µg/mL	–
Cc1cc(C)cc(CC(CN)(Cc2cc(C)cc(C)c2)C(=O)NCCN(C)C)c1 [Compound 25, 3-amino-N-(2-(dimethylamino)-ethyl)-2,2-bis(3,5-dimethylbenzyl)-propanamide]	100 µg/mL	50 µg/mL	10 µg/mL	50 µg/mL	–	–	–	–	–	–	–	–	–	820 µg/mL	–
CN(C)CCNC(=O)C(CN)(CCCc1ccccc1)CCCc1ccccc1 [Compound 26, 2-(aminomethyl)-N-(2-(dimethyl-amino)ethyl)-5-phenyl-2-(3-phenyl-propyl)-pentanamide]	35 µg/mL	35 µg/mL	35 µg/mL	100 µg/mL	–	–	–	–	–	–	–	–	–	316 µg/mL	–
CN(C)CCNC(=O)C(CN)(Cc1ccc2ccccc2c1)Cc1ccc2ccccc2c1 [Compound 27, 3-amino-N-(2-(dimethylamino)ethyl)-2,2-bis(naphthalen-2-ylmethyl)propanamide]	5 µg/mL	5 µg/mL	5 µg/mL	15 µg/mL	–	–	–	–	–	–	–	–	–	145 µg/mL	–
Cc1cc(C)cc(CC(CN)(Cc2cc(C)cc(C)c2)C(=O)N2CCN(CCN(C)C)CC2)c1 [Compound 35, 3-amino-1-(4-(2-(dimethylamino)ethyl)piperazin-1-yl)-2,2-bis(3,5-dimethylbenzyl)propan-1-one]	50 µg/mL	50 µg/mL	35 µg/mL	100 µg/mL	–	–	–	–	–	–	–	–	–	–	–
